These are literature values, as cited in US7005448B2, “Aminoalkyl-benzofuran-5-ol compounds for the treatment of glaucoma” (priority 2001, dated 2006).

One series deals with rabbit eye. The settings on record: for intraocular pressure in the anterior chamber of the eye: topically applied to the rabbit eye [Meyer-Bothling et al. 1993].
For a further series, the system named is animals. The note with it: in vivo.
The target of another series is 5-HT2A receptor (Homo sapiens, UniProt P28223).
[1] abbreviates: intracamerally [Krootila et al. 1987].

Structures are written as SMILES. Read-outs that look alike come from different tables or passages of the source.

Sequence of 5-HT2A receptor (P28223 whole entry): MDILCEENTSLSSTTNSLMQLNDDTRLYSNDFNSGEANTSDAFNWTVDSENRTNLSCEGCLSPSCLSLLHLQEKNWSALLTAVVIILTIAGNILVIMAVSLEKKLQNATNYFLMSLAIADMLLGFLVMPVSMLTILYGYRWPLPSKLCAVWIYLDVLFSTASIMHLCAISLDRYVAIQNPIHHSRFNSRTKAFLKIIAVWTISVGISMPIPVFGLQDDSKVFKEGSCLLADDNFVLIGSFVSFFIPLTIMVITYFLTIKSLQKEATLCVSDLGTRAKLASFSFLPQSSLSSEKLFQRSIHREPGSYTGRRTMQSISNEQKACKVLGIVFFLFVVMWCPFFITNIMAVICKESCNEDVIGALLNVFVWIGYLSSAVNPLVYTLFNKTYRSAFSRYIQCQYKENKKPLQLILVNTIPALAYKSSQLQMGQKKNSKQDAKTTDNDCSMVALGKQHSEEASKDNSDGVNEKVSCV

Take `COc1ccccc1N1CCN(CCCNc2c(C)c(=O)n(C)c(=O)n2C)CC1` [5-methylurapidil]: the “α1 receptor antagonist activity” value in the series with α1 receptor is given as “relatively potent α1 receptor antagonists”. Besides, the IOP entry in the series on glaucomatous monkeys is “lowered IOP”.

For `CCCN(CCC)C1CCc2cccc(O)c2C1` (stereo not shown) [8-hydroxy DPAT], in the series on rabbit eye (rabbits), the IOP entry is recorded as “lower IOP”.

Take `NCCc1c[nH]c2ccc(C(N)=O)cc12` [Compound 5-CT, 5-carboxamidotryptainine]: the “intraocular pressure in the anterior chamber of the eye” value with rabbit eye is “raise intraocular pressure”.

Consider `NCCc1c[nH]c2ccc(O)cc12` [Compound 5-HT, 5-hydroxy tryptamine], for which, in the series on rabbit eye (setting [1]), the IOP entry is “raised IOP” and the blood-aqueous barrier result is reported as “breakdown of the blood-aqueous barrier”. Also, the IOP entry in the series on rabbit eye (topically applied [Krootila et al. 1987]) is “lowers IOP”. Besides, in the series with rabbit eye, the “intraocular pressure in the anterior chamber of the eye” value is “raise intraocular pressure”.

In the case of `O=C(c1ccc(F)cc1)C1CCN(CCn2c(=O)[nH]c3ccccc3c2=O)CC1` [Ketanserin], the IOP result in the series on human subjects (man) and with rabbit eye (rabbits) was “lowers IOP” each time. Further, the “α1 receptor antagonist activity” value in the series on α1 receptor is “significant α1 antagonist activity”.

Turning to `c1ccc2c(c1)OC[C@H](CNCCCOc1ccc3c(c1)OCO3)O2` [MKC-242], the “α1 receptor antagonist activity” value with α1 receptor is given as “relatively potent α1 receptor antagonists”. The IOP entry in the series with rabbit eye (rabbits) is listed as “lower IOP”.

`CC[C@@H](CO)NC(=O)[C@@H]1C=C2c3cccc4c3c(cn4C)C[C@H]2N(C)C1` [Methysergide]: the IOP entry with rabbit eye (rabbits) was “lowered IOP”.

For the compound `COc1cccc(CCc2ccccc2OCC(CN(C)C)OC(=O)CCC(=O)O)c1` (stereo not shown) [Saprogrelate], the IOP result is listed as “lowers IOP” in the series with human subjects (man, dosed topically or orally) and “lowers IOP” in the series on rabbit eye (rabbits, dosed topically or orally).

Consider `CC(N)Cc1c2ccoc2c(Br)c2ccoc12` (stereo not shown) [The Nichols compound], for which the “generalization to LSD in drug discrimination studies” value with animals is listed as “generalize to LSD”. Further, at 5-HT2A receptor, the “affinity for the 5-HT2A receptor” value is recorded as “high affinity”.

`CNCCC(Oc1ccc(C(F)(F)F)cc1)c1ccccc1` (stereo not shown) [fluoxetine]: in the series on human subjects (human subjects, oral administration), the IOP entry is “raises IOP”.
